# Read-outs that look alike come from different tables or passages of the source.
# Experiments:
# [1] = system: Klebsiella pneumoniae (KPN) isolates; experiment: MIC of compounds alone and combined with antibacterials, broth microdilution (CLSI); format: cell-based; details: Klebsiella pneumoniae, read-out: MIC
# In short: (§1)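 First, log-phase suspensions are brought to 5.10^5 CFU/mL final in ca-MHB; plates then incubate 16-20 h at 35° C in air. Growth is judged visually, giving the compound MIC alone and the antibacterial MIC at each compound concentration.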
# [2] = system: Serratia marcescens (SMA) isolates; experiment: as above; format: cell-based; details: Serratia marcescens, read-out: MIC
# In short: as §1
compound,measurement,setting,value
"COCC1=C(C(=O)O)N2C(=O)[C@@H](NC(=O)/C(=N\OC)c3csc(N)n3)[C@H]2SC1 [POD, Cefpodoxime]",MIC,"[1]; BAA1898, strain KPN BAA-1898, genotype TEM-1, SHV-11, SHV-12, KPC-2",> 512 µg/mL
same,MIC,"[1]; strain KPN 6299, genotype TEM-1, SHV-11, OXA-163",64 µg/mL
same,MIC,"[1]; strain KPN 700603, genotype SHV-18, OXA-2",16 µg/mL
same,MIC,"[1]; strain KPN LIB, genotype SHV-11, OXA-48",1 µg/mL
same,MIC,"[1]; strain KPN UFR22_O, genotype TEM-1, SHV-1, OXA-48",1 µg/mL
same,MIC,"[1]; strain KPN UFR23, genotype TEM-1, SHV-1, OXA-48",0.5 µg/mL
same,MIC,"[1]; strain KPN UFR77, genotype CMY-2",64 µg/mL
same,MIC,"[1]; strain KPN UFR79, genotype DHA-1, OXA-1",32 µg/mL
same,MIC,"[1]; strain KPN UFR80, genotype SHV-11, DHA-1, OXA-1",2 µg/mL
same,MIC,"[2]; strain SMA UFR30, genotype OXA-405",32 µg/mL
same,MIC,"[2]; strain SMA UFR137, genotype SME-1",1 µg/mL
same,MIC,"[2]; strain SMA UFR138, genotype SME-1",2 µg/mL
same,MIC,"[2]; strain SMA UFR139, genotype SME-2",8 µg/mL
same,MIC,"[2]; strain SMA UFR141, genotype OXA-48",8 µg/mL
same,MIC,"[2]; strain SMA UFR142, genotype OXA-48",8 µg/mL
same,MIC,"[2]; strain SMA UFR238, genotype OXA-48",8 µg/mL
same,MIC,"[2]; strain SMA UFR239, genotype ESAC",16 µg/mL

# — US20200017495A1, “NOVEL HETEROCYCLIC COMPOUNDS AND THEIR USE IN PREVENTING OR TREATING BACTERIAL INFECTIONS” (priority 2017, published 2020)
